Molecular target: T1, ligand binding domain of human RORγ (A262-S507) (Homo sapiens, UniProt P51449)
T1 construct: made in house; host or cells: E. coli
T1 sequence (P51449 262-507): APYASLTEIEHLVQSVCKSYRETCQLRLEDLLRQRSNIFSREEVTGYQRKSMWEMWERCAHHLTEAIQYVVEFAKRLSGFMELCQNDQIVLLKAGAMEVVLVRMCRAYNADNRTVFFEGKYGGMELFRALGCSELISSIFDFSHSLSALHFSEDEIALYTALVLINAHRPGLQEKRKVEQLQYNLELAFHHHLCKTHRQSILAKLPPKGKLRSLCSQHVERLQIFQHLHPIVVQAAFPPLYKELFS
Experiment: General RORγ SPA binding assay (competition with [3H]25-hydroxycholesterol)
Settings: RORγ SPA binding assay, inhibition of [3H]25-hydroxycholesterol binding; read-out: IC50
Procedure: Example 2 General RORγ SPA Binding Assay
The binding of potential ligands to RORγ is measured by competition with [^3H]25-hydroxycholesterol using a scintillation proximity assay (SPA) binding assay. The ligand binding domain of human RORγ (A262-S507) with an N-terminal His tag is expressed in E. coli and purified using nickel affinity chromotography. 50 nM RORγ (A262-S507) is incubated with test compound at varying concentrations for 15 min at room temperature in PBS buffer containing 0.5% fatty acid free BSA. […] of [^3H]25-hydroxycholesterol is then added, and the reaction is incubated for 15 min. 4 mg/mL of Ysi Copper HIS-TAG SPA Beads (Perkin Elmer) are added, and the mixture is incubated for 30 min. The reaction is read on a MicroBeta Trilux scintillation plate reader (Perkin Elmer). IC50 values are determined from the percentage inhibition of [^3H]25-hydroxycholesterol binding.

SMILES	IC50
Cc1ncc(C(=O)NCc2cccc(C#N)c2)c(C2CCN(C(=O)Cc3c(F)cccc3F)CC2)n1 [Compound A50, N-(3-cyanobenzyl)-4-(1-(2-(2,6-difluorophenyl)acetyl)piperidin-4-yl)-2-methylpyrimidine-5-carboxamide]	7.1 nM
CCOCC(C)(OCc1cc(C)cc(C)c1)c1cnc(C)nc1C1CCN(C(=O)Cc2c(F)cccc2F)CC1 (stereo not drawn) [Compound E2, 2-(2,6-difluorophenyl)-1-(4-(5-(2-((3,5-dimethylbenzyl)oxy)-1-ethoxypropan-2-yl)-2-methylpyrimidin-4-yl)piperidin-1-yl)ethanone]	5.3 nM
Cc1nc(N)nc(C2CCN(C(=O)Oc3ccccc3F)CC2)c1-c1nnc(-c2ccnc(C(F)(F)F)n2)o1 [Compound C52, 2-Fluorophenyl 4-(2-amino-6-methyl-5-{5-[2-(trifluoromethyl)pyrimidin-4-yl]-1,3,4-oxadiazol-2-yl}pyrimidin-4-yl)piperidine-1-carboxylate]	8.7 nM
Cc1nc(C)c(C(=O)NCc2cccc(C(F)(F)F)n2)c(C2CCN(C(=O)Cc3c(F)cccc3F)CC2)n1 [Compound A82, 4-(1-(2-(2,6-difluorophenyl)acetyl)piperidin-4-yl)-2,6-dimethyl-N-((6-(trifluoromethyl)pyridin-2-yl)methyl)pyrimidine-5-carboxamide]	6.2 nM
Cc1nc(C)c(C(O)COc2ccnc(C(F)(F)F)n2)c(C2CCN(C(=O)Nc3c(F)cccc3F)CC2)n1 (stereo not drawn) [Compound M9, N-(2,6-Difluorophenyl)-4-[5-(1-hydroxy-2-{[2-(trifluoromethyl)pyrimidin-4-yl]oxy}ethyl)-2,6-dimethylpyrimidin-4-yl]piperidine-1-carboxamide]	2 nM
COc1ncc(C(C)(O)COc2ccnc(C(F)(F)F)n2)c(C2CCN(C(=O)Nc3c(F)cccc3F)CC2)n1 (stereo not drawn) [Compound D44, N-(2,6-Difluorophenyl)-4-[5-(1-hydroxy-1-methyl-2-{[2-(trifluoromethyl)pyrimidin-4-yl]oxy}ethyl)-2-(methyloxy)pyrimidin-4-yl]piperidine-1-carboxamide]	4.6 nM
C/C(=N\Oc1ccnc(C(F)(F)F)c1)c1cnc(C)nc1C1CCN(C(=O)Cc2c(F)cccc2F)CC1(F)F (stereo not drawn) [Compound B34, (E)-1-(3,3-Difluoro-4-(2-methyl-5-(1-(2-(trifluoromethyl)pyridin-4-yloxyimino)ethyl)pyrimidin-4-yl)piperidin-1-yl)-2-(2,6-difluorophenyl)ethanone]	12.5 nM
Cc1cc(C)cc(CNC(=O)c2cnc(C)nc2C2CCN(C(=O)[C@H](C)c3ccccc3)CC2)c1 [Compound A16, (R)-N-(3,5-dimethylbenzyl)-2-methyl-4-(1-(2-phenylpropanoyl)piperidin-4-yl)pyrimidine-5-carboxamide]	89 nM
CC(=O)N1CCC(NC(COc2cccc(C(F)(F)F)n2)c2cnc(C)nc2C2CCN(C(=O)Nc3c(F)cccc3F)CC2)CC1 (stereo not drawn) [Compound N28, 4-[5-(1-[(1-Acetylpiperidin-4-yl)amino]-2-{[6-(trifluoromethyl)pyridin-2-yl]oxy}ethyl)-2-methylpyrimidin-4-yl]-N-(2,6-difluorophenyl)piperidine-1-carboxamide]	71 nM
CC(O)(COc1ccnc(C(F)(F)F)n1)c1cnc(OC(CF)CF)nc1C1CCN(C(=O)Nc2c(F)cccc2F)CC1 (stereo not drawn) [Compound D42, N-(2,6-Difluorophenyl)-4-[2-{[2-fluoro-1-(fluoromethyl)ethyl]oxy}-5-(1-hydroxy-1-methyl-2-{[2-(trifluoromethyl)pyrimidin-4-yl]oxy}ethyl)pyrimidin-4-yl]piperidine-1-carboxamide]	348 nM
C/C(=N\Oc1ccnc(C#N)c1)c1cnc(C)nc1C1CCN(C(=O)Cc2c(F)cccc2F)CC1 [Compound B13, (E)-4-(((1-(4-(1-(2-(2,6-difluorophenyl)acetyl)piperidin-4-yl)-2-methylpyrimidin-5-yl)ethylidene)amino)oxy)picolinonitrile]	4.7 nM

Further lines, results first:

IC50	SMILES
66 nM	Cc1cc(C)cc(CNC(=O)c2cnc(C)nc2C2CCN(C(=O)Cc3cc(F)ccc3F)CC2)c1 [Compound A14, 4-(1-(2-(2,5-difluorophenyl)acetyl)piperidin-4-yl)-N-(3,5-dimethylbenzyl)-2-methylpyrimidine-5-carboxamide]
23.3 nM	Cc1nc(N)nc(C2CCN(C(=O)Nc3c(F)cccc3C(F)(F)F)CC2)c1-c1nnc(-c2ccnc(C(F)(F)F)n2)o1 [Compound C49, 4-(2-Amino-6-methyl-5-{5-[2-(trifluoromethyl)pyrimidin-4-yl]-1,3,4-oxadiazol-2-yl}pyrimidin-4-yl)-N-[2-fluoro-6-(trifluoromethyl)phenyl]piperidine-1-carboxamide]
6.7 nM	CCc1ncc(C(=O)NCc2cccc(Cl)c2)c(C2CCN(C(=O)Cc3c(F)cccc3F)CC2)n1 [Compound A48, N-(3-chlorobenzyl)-4-(1-(2-(2,6-difluorophenyl)acetyl)piperidin-4-yl)-2-ethylpyrimidine-5-carboxamide]
37 nM	CC(=O)Nc1nc(C)c(C(COc2cccc(C(F)(F)F)n2)OC(C)=O)c(C2CCN(C(=O)Nc3c(F)cccc3F)CC2)n1 (stereo not drawn) [Compound N11, 1-[2-(Acetylamino)-4-(1-{[(2,6-difluorophenyl)amino]carbonyl}piperidin-4-yl)-6-methylpyrimidin-5-yl]-2-{[6-(trifluoromethyl)pyridin-2-yl]oxy}ethyl acetate]
71 nM	Cc1nc(NCc2ccnc(C(F)(F)F)c2)c(C(=O)NCc2ccnc(C(F)(F)F)c2)c(C2CCN(C(=O)Cc3c(F)cccc3F)CC2)n1 [Compound I2, 4-{1-[(2,6-Difluorophenyl)acetyl]piperidin-4-yl}-2-methyl-N-{[2-(trifluoromethyl)pyridin-4-yl]methyl}-6-({[2-(trifluoromethyl)pyridin-4-yl]methyl}amino)pyrimidine-5-carboxamide]
24.3 nM	COc1cccc(CNC(=O)c2cnc(C)nc2C2CCN(C(=O)Cc3c(F)cccc3F)CC2)c1 [Compound A58, 4-(1-(2-(2,6-difluorophenyl)acetyl)piperidin-4-yl)-N-(3-methoxybenzyl)-2-methylpyrimidine-5-carboxamide]
69.5 nM	Nc1ncc(C(O)CNc2ccnc(C(F)(F)F)n2)c(C2CCN(C(=O)Nc3c(F)cccc3F)CC2)n1 (stereo not drawn) [Compound N12, 4-[2-amino-5-(1-hydroxy-2-{[2-(trifluoromethyl)pyrimidin-4-yl]amino}ethyl)pyrimidin-4-yl]-N-(2,6-difluorophenyl)piperidine-1-carboxamide]
5.6 nM	Cc1ncc(C(N)(C#N)COc2cccc(C(F)(F)F)n2)c(C2CCN(C(=O)Nc3c(F)cccc3F)CC2)n1 (stereo not drawn) [Compound N48, 4-[5-(1-Amino-1-cyano-2-{[6-(trifluoromethyl)pyridin-2-yl]oxy}ethyl)-2-methylpyrimidin-4-yl]-N-(2,6-difluorophenyl)piperidine-1-carboxamide]
2970 nM	Cc1cc(C)cc(CNC(=O)c2cnc(C)nc2C2CCN(C(=O)C(C)(C)c3ccccc3)CC2)c1 [Compound A35, N-(3,5-dimethylbenzyl)-2-methyl-4-(1-(2-methyl-2-phenylpropanoyl)piperidin-4-yl)pyrimidine-5-carboxamide]
5450 nM	COc1cccc(CC(=O)N2CCC(c3nc(C)ncc3C(=O)NCc3cc(C)cc(C)c3)CC2)c1 [Compound A39, N-(3,5-dimethylbenzyl)-4-(1-(2-(3-methoxyphenyl)acetyl)piperidin-4-yl)-2-methylpyrimidine-5-carboxamide]
